In patent US20220009918A1, “Chemical Compounds” (GlaxoSmithKline Intellectual Property Development Limited, priority 2018, published 2022):

What follows are compounds tested against T1, human H-PGDS (Homo sapiens, UniProt O60760) (assay: H-PGDS RapidFire high throughput mass spectrometry assay). Settings: inhibition of conversion of PGH2 to PGD2 by H-PGDS; mean pIC50; read-out: Potency Range (mean pIC50) (converted).
T1 construct: Full length human H-PGDS cDNA (Invitrogen Ultimate ORF IOH13026) was amplified by PCR; 6-His (N); TEV protease cleavage site (N); made in house; host or cells: E. coli BL21 (DE3*) for H-PGDS; Sf9 insect cells (baculovirus) for COX-2
T1 sequence (O60760 whole entry): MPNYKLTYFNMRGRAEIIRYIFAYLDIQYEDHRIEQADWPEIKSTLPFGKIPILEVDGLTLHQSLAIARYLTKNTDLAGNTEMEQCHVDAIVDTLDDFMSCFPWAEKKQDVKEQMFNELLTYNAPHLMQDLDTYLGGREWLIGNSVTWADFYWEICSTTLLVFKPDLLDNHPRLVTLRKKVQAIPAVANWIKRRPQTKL
Type: biochemical
Method: H-PGDS RapidFire™ High Throughput Mass Spectrometry Assay
The H-PGDS RapidFire™ mass spectrometric assay monitors conversion of prostaglandin H2 (PGH2) to prostaglandin D2 (PGD2) by haematopoietic prostaglandin D synthase (H-PGDS). In the assay format described here, the substrate (PGH2) is formed in situ by the action of cyclooxygenase-2 on arachidonic acid. This first step is set up to be fast, and generates a burst of PGH2 at ˜10 μM. The PGH2 is then further converted to PGD2 by the H-PGDS enzyme. […] Plates are then read on the RapidFire™ high throughput solid phase extraction system (Agilent) which incorporates a solid phase extraction step coupled to a triple quadrupole mass spectrometer (AB SCIEX). Relative levels of PGD2 and PGF2α, which acts as a surrogate for substrate, are measured and a percent conversion calculated. Inhibitors are characterised as compounds which lower the conversion of PGH2 to PGD2.
Full length human H-PGDS cDNA (Invitrogen Ultimate ORF IOH13026) was amplified by PCR with the addition of a 5′ 6-His tag and TEV protease cleavage site. The PCR product was digested with NdeI and XhoI and ligated into pET22b+ (Merck Novagen®). Expression was carried out in E. coli strain BL21 (DE3*) using auto-induction Overnight Express™ Instant TB medium (Merck Novagen®) supplemented with 1% glycerol. The culture was first grown at 37° C. and the temperature was reduced to 25° C. when OD600 reached 2.0. Cells were harvested by centrifugation after a further 18 hours. 10 g of E. coli cell pellet was suspended to a total volume of 80 mL in lysis buffer (20 mM Tris-Cl pH 7.5, 300 mM NaCl, 20 mM imidazole, 5 mM p-mercaptoethanol, 10% glycerol). 1 mg/mL protease inhibitors (Protease Inhibitor Cocktail Set III, Merck Calbiochem®) and 1 mg/mL lysozyme were added to the cell suspension. The suspension was then sonicated for 5 min (UltraSonic Processor VCX 750, Cole-Parmer Instrument Co.) with a micro probe (50% amplitude, 10 sec on/off) and then centrifuged at 100,000 g for 90 minutes (at 4° C.). The supernatant was loaded onto a Ni-NTA HiTrap column (5 mL, GE Healthcare, pre-equilibrated in lysis buffer). The column was washed with 10 column volumes of lysis buffer and eluted with lysis buffer containing 500 mM imidazole. The pooled protein peak fractions were concentrated using a 10 kDa centrifugal filter at 3500 g and 4° C. (Amicon Ultra-15 centrifugal filter unit with Ultracel-10 membrane from Millipore). Further purification of the concentrated protein was carried out using gel filtration chromatography on a HiLoad 26/600 Superdex 75 preparative grade column (GE Healthcare Life Sciences) using 50 mM Tris pH 7.5, 50 mM NaCl, 1 mM dithiothreitol, 1 mM MgCl2. Fractions containing the protein were pooled, concentrated as described above, and stored at −80° C.
The full length human COX-2 gene (accession number L15326) was amplified by PCR to generate an EcoRI—HindIII fragment containing an in-frame FLAG tag. This was subcloned into pFastBac 1 (Invitrogen). The COX-2 FLAG plasmid was recombined into the baculovirus genome according to the BAC-to-BAC protocol described by Invitrogen. Transfection into Spodoptera frugiperda (Sf9) insect cells was performed using Cellfectin (Invitrogen), according to the manufacturer's protocol. Super Sf9 cells were cultured in EX420 media (SAFC Biosciences) to a density of approximately 1.5×10^6 cells/mL within a wave bioreactor. Recombinant virus was added at a Multiplicity of Infection (MOI) of 5 and the culture was allowed to continue for 3 days. Cells were harvested using a continuous feed centrifuge run at 2500 g at a rate of approximately 2 L/min with cooling. The resultant cell slurry was re-centrifuged in pots (2500 g, 20 min, 4° C.) and the cell paste was stored at −80° C. […]
In the case of `N#Cc1cccc(-c2ncc(C(=O)N[C@H]3CCNC3=O)s2)c1` [Example 43, (S)-2-(3-Cyanophenyl)-N-(2-oxopyrrolidin-3-yl)thiazole-5-carboxamide], the IC50 is reported as 102 to 1000 nM. `O=C(N[C@H]1CCNC1=O)c1cnc(-c2cccc(F)c2)s1` [Example 45, (S)-2-(3-Fluorophenyl)-N-(2-oxopyrrolidin-3-yl)thiazole-5-carboxamide] was tested, and the IC50 was 10.2 to 100 nM. `O=C(N[C@@H]1CCNC1=O)c1cnc(-c2cc(F)cc(Cl)c2)s1` [Example 26, (R)-2-(3-Chloro-5-fluorophenyl)-N-(2-oxopyrrolidin-3-yl)thiazole-5-carboxamide] gave an IC50 of 102 to 1000 nM. Compound `CN1CC[C@H](NC(=O)c2cnc(-c3cc(F)cc(Cl)c3)s2)C1=O` [Example 64, (S)-2-(3-Chloro-5-fluorophenyl)-N-(1-methyl-2-oxopyrrolidin-3-yl)thiazole-5-carboxamide] has an IC50 of 10.2 to 100 nM. Compound `O=C(N[C@H]1CCNC1=O)c1cnc(-c2cccc(C(F)(F)F)c2)s1` [Example 4, (S)-N-(2-Oxopyrrolidin-3-v)-2-(3-(trifluoromethyl)phenyl)thiazole-5-carboxamide] has an IC50 of 10.2 to 100 nM. For `CN(C(=O)c1cnc(-c2cc(F)cc(Cl)c2)s1)[C@@H]1CCNC1=O` [Example 67, (R)-2-(3-Chloro-5-fluorophenyl)-N-methyl-N-(2-oxopyrrolidin-3-yl)thiazole-5-carboxamide], the IC50 was > 10000 nM. `O=C(NC1CC2(COC2)NC1=O)c1cnc(-c2cc(F)cc(Cl)c2)s1` (racemic) [Example 55, Racemic 2-(3-Chloro-5-fluorophenyl)-N-(6-oxo-2-oxa-5-azaspiro[3.4]octan-7-yl)thiazole-5-carboxamide] gave an IC50 of 1.02 to 10 nM. In the case of `O=C(N[C@H]1CCNC1=O)c1cnc(-c2cc(F)cc(Cl)c2)s1` [Example 6, (S)-2-(3-Chloro-5-fluorophenyl)-N-(2-oxopyrrolidin-3-yl)thiazole-5-carboxamide], the IC50 is reported as 1.02 to 10 nM. Work on `O=C(N[C@H]1CCNC1=O)c1cnc(-c2cccc(Cl)c2F)s1` [Example 8, (S)-2-(3-Chloro-2-fluorophenyl)-N-(2-oxopyrrolidin-3-yl)thiazole-5-carboxamide] yielded an IC50 of 10.2 to 100 nM. Work on `COc1ccc(CN2CCC(C)(NC(=O)c3cnc(-c4cc(F)cc(Cl)c4)s3)C2=O)cc1` (racemic) [Example 70, Racemic 2-(3-Chloro-5-fluorophenyl)-N-(1-(4-methoxybenzyl)-3-methyl-2-oxopyrrolidin-3-yl)thiazole-5-carboxamide] yielded an IC50 of 102 to 1000 nM. `NC(=O)CN1CC[C@H](NC(=O)c2cnc(-c3cc(F)cc(F)c3)s2)C1=O` [Example 17, (S)-N-(1-(2-Amino-2-oxoethyl)-2-oxopyrrolidin-3-yl)-2-(3,5-difluorophenyl)thiazole-5-carboxamide] showed an IC50 of 102 to 1000 nM. With `O=C1NCC[C@@H]1NC(=S)c1cnc(-c2cc(F)cc(Cl)c2)s1` [Example 80, (S)-2-(3-chloro-5-fluorophenyl)-N-(2-oxopyrrolidin-3-yl)thiazole-5-carbothioamide] the IC50 was 1.02 to 10 nM. `O=C(N[C@@H]1C(=O)N[C@H]2COC[C@H]21)c1cnc(-c2cc(F)cc(Cl)c2)s1` [Example 53, 2-(3-Chloro-5-fluorophenyl)-N-((3S,3aR,6aR)-2-oxohexahydro-1H-furo[3,4-b]pyrrol-3-yl)thiazole-5-carboxamide] was tested, and the IC50 was 10.2 to 100 nM. Compound `C[C@H]1[C@H](NC(=O)c2cnc(-c3cc(F)cc(Cl)c3)s2)C(=O)N[C@@H]1C` [Example 36, 2-(3-Chloro-5-fluorophenyl)-N-((3S,4R,5R)-4,5-dimethyl-2-oxopyrrolidin-3-yl)thiazole-5-carboxamide] has an IC50 of 10.2 to 100 nM. `O=C(N[C@H]1C(=O)N[C@@H]2CCC[C@@H]21)c1cnc(-c2cc(F)cc(Cl)c2)s1` [Example 50, 2-(3-Chloro-5-fluorophenyl)-N-((3R,3aS,6aR)-2-oxooctahydrocyclopenta[b]pyrrol-3-yl)thiazole-5-carboxamide] gave an IC50 of 102 to 1000 nM. `O=C(NC1CCNC1=O)c1cnc(-c2cccc(Cl)c2)s1` (racemic) [Example 2, Racemic 2-(3-Chlorophenyl)-N-(2-oxopyrrolidin-3-yl)thiazole-5-carboxamide] was tested, and the IC50 was 10.2 to 100 nM.
